The molecules below were run against HSP90 (Homo sapiens, UniProt P07900) (assay: HSP90 inhibition (HSP90 IC50)).
Assay type: biochemical

Compound	IC50 [nM]
Cc1cc(C(N)=O)c(NCC2CCCC2)cc1C(=O)N[C@H]1C[C@H]2CC[C@@H](C1)N2c1ccc(C(=O)C2CC2)cn1 [5-[(cyclopentylmethyl)amino]-N-{8-[5-(cyclopropylcarbonyl)pyridin-2-yl]-8-azabicyclo[3.2.1]oct-3-endo-yl}-2-methylbenzene-1,4-dicarboxamide]	< 500
Cc1c(C(N)=O)cccc1C(=O)N[C@H]1C[C@H]2CC[C@@H](C1)N2c1ccc(C(=O)NCc2ccccc2)cn1 [2-methyl-N-[8-(5-{[(phenylmethyl)amino]carbonyl}pyridin-2-yl)-8-azabicyclo[3.2.1]oct-3-endo-yl]benzene-1,3-dicarboxamide]	2000 to 10000
Cc1cnc(CNC(=O)c2ccc(N3[C@@H]4CC[C@H]3C[C@@H](NC(=O)c3ccc(CO)cc3)C4)nc2)cn1 [6-[3-endo-({[4-(hydroxymethyl)phenyl]carbonyl}amino)-8-azabicyclo[3.2.1]oct-8-yl]-N-[(5-methylpyrazin-2-yl)methyl]pyridine-3-carboxamide]	< 500
O=C(NCc1ccccc1)c1ccc(N2[C@@H]3CC[C@H]2C[C@@H](NC(=O)c2ccc(C(O)CO)cc2)C3)nc1 (stereo partly drawn) [6-[3-endo-({(4-(1,2-dihydroxyethyl)phenyl]carbonyl}amino)-8-azabicyclo[3.2.1]oct-8-yl]-N-(phenylmethyl)pyridine-3-carboxamide]	1000 to 2000
C[C@H](NC(=O)c1ccc(N2C3CCC2CC(NC(=O)c2ccc(C(N)=O)c(NC4CCC4)c2)C3)nc1)c1ccc(N2CCN(C)CC2)cc1 (stereo partly drawn) [2-(cyclobutylamino)-N4-(8-{5-[({(1S) 1-[4-(4-methylpiperazin-1-yl)phenyl]ethyl}amino)carbonyl]pyridin-2-yl}-8-azabicyclo[3.2.1]oct-3-endo-yl)benzene-1,4-dicarboxamide]	< 500
CCNc1cc(C(N)=O)c(N[C@H](C)CC)cc1C(=O)NC1CC2CCC(C1)N2c1ccc(C(=O)C2CC2)cn1 (stereo partly drawn) [N-{8-[5-(cyclopropylcarbonyl)pyridin-2-yl]-8-azabicyclo[3.2.1]oct-3-endo-yl}-2-(ethylamino)-5-{[(1R)-1-methylpropyl]amino}benzene-1,4-dicarboxamide]	2000 to 10000

Next, values leading:

IC50 [nM]	Compound
500 to 999	COc1cccc(C(=O)N[C@H]2C[C@H]3CC[C@@H](C2)N3c2ccc(C(=O)NCCCN3CCCC3=O)cn2)c1C [6-[3-endo-({[2-methyl-3-(methyloxy)phenyl]carbonyl}amino)-8-azabicyclo[3.2.1]oct-8-yl]-N-[3-(2-oxopyrrolidin-1-yl)propyl]pyridine-3-carboxamide]
500 to 999	COc1cccc(C(=O)NC2CC3CCC(C2)N3c2ccc(C(=O)N[C@@H](C)C(N)=O)cn2)c1C (stereo partly drawn) [N-[(1S)-2-amino-1-methyl-2-oxoethyl]-6-[3-endo-({[2-methyl-3-(methyloxy)phenyl]carbonyl}amino)-8-azabicyclo[3.2.1]oct-8-yl]pyridine-3-carboxamide]
500 to 999	COc1cccc(C(=O)NC2CC3CCC(C2)N3c2ccc(C(=O)N[C@H]3CCN(Cc4ccccc4)C3)cn2)c1C (stereo partly drawn) [6-[3-endo-({[2-methyl-3-(methyloxy)phenyl]carbonyl}amino)-8-azabicyclo[3.2.1]oct-8-yl]-N-[(3S)-1-(phenylmethyl)pyrrolidin-3-yl]pyridine-3-carboxamide]
< 500	COc1cccc(C(=O)N[C@H]2C[C@H]3CC[C@@H](C2)N3c2ccc(C(=O)NCc3ccc(C4CCN(C)CC4)cc3)cn2)c1C [6-[3-endo-({[2-methyl-3-(methyloxy)phenyl]carbonyl}amino)-8-azabicyclo[3.2.1]oct-8-yl]-N-{[4-(1-methylpiperidin-4-yl)phenyl]methyl}pyridine-3-carboxamide]
< 500	CCN(CC)CCOc1ccc([C@H](C)NC(=O)c2ccc(N3C4CCC3CC(NC(=O)c3cccc(OC)c3C)C4)nc2)cc1 (stereo partly drawn) [N-[(1S)-1-(4-{[2-(diethylamino)ethyl]oxy}phenyl)ethyl]-6-[3-endo-({[2-methyl-3-(methyloxy)phenyl]carbonyl}amino)-8-azabicyclo[3.2.1]oct-8-yl]pyridine-3-carboxamide]
